Test results as given in patent US11413278B2, “Compounds and methods for promoting stress resistance” (priority 2015, dated 2022).
Like-named read-outs stand apart in the source and are kept apart here.

Tests used:
human PARP1 = molecular target: T1, human PARP1 (Homo sapiens, UniProt P09874); experiment: PARP inhibitor assay (HT Fluorescent Homogeneous PARP Inhibition Assay Kit); assay type: biochemical; conditions: score
T1 construct: purchased Trevigen
In short: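 Human PARP1 with NAD and activated DNA, compounds at 10 μM final, 30 min at room temperature in dark. Resazurin/diaphorase cycling mix then added for 1 hr in dark before stop buffer; fluorescent homogeneous kit read-out.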

WI-38 cells [1] = experiment: CdCl2 (cadmium) resistance assay; assay type: cell-based, human; conditions: for fold induction at 10 µM: Homo sapiens, 12 h, normalized ATP measurement; for Assay 4: H2O2- & Cd-resistant / Assay 2: Cadmium-resistant: YES/NO; for Assay 2: Cadmium-resistant: * indicates partial
In short: (§1)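 WI-38 cells were given compounds at five final concentrations (0.25–20 μM) in triplicate, followed by cadmium or MMS for 12 h. For MMS, medium was switched from OptiMEM+10% FBS to serum-free DMEM+2% BSA when compounds were added, 24 h before stressor. Two independent assays were run, analysed by global variance t-test.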

WI-38 cells [2] = experiment: MMS resistance assay; assay type: cell-based, human; conditions: for fold induction at 10 µM: Homo sapiens, 12 h, normalized ATP measurement
In short: as §1

[3] = system: phosphorylated γH2A.X and TP53BP1; experiment: DNA damage marker analysis (immuno-staining); conditions: for activity at 10 µM: Homo sapiens, WI-38, 24 h; for P = Potential DNA-damaging / R = Potential DNA damaging: human, 24 h
In short: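 WI-38 cells were cultured 24 h, then treated with compounds for 24 h; H2O2 (700 μM, 3 h) and doxorubicin (300 nM, 24 h) served as DNA-damage controls. After fixation, cells were immunostained for phospho-γH2A.X (Ser-139) and phospho-TP53BP1 (Ser-1778), counterstained with DAPI, and imaged by automated high-content microscopy.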

C. elegans = C. elegans lifespan assays (liquid and plate); assay type: in vivo, Caenorhabditis elegans; conditions: for ILS at 60 µM / ILS at 66 µM: Caenorhabditis elegans; for O = Life span- extending scores in worms: score scale 0 to 2, 4 to 6 independent trials; for M = Lifespan-extending scores in worms: summary score
[4] = Exp. 1, WI-38 cells, read-out: Exp. 1, under Cd2Cl2 stress treatment, at 10 uM (fold change)
[5] = Exp. 2, WI-38 cells, read-out: Exp. 2, under Cd2Cl2 stress treatment, at 10 uM (fold change)
[6] = score in summary of 38 core set hits
[7] = Exp. 1, WI-38 cells, read-out: Exp. 1, under MMS stress treatment, at 10 uM (fold change)
[8] = Exp. 2, WI-38 cells, read-out: Exp. 2, under MMS stress treatment, at 10 uM (fold change)
[9] = read-out: Experiment 1, H2A.X-P DNA damage foci staining (no H2O2 stress treatment), at 10 uM
[10] = read-out: Experiment 2, H2A.X-P DNA damage foci staining (no H2O2 stress treatment), at 10 uM
[11] = read-out: Experiment 2, H2A.X-P DNA damage foci staining (under H2O2 stress treatment), at 10 uM
[12] = read-out: Experiment 2, TP53BP1-P DNA damage foci staining (no H2O2 stress treatment), at 10 uM
[13] = read-out: Experiment 2, TP53BP1-P DNA damage foci staining (under H2O2 stress treatment), at 10 uM
[14] = in liquid, wild type, with FuDR, 1.0 × 10^9 bacteria/ml, read-out: relative change of mean lifespan vs control, Trial 1
[15] = in liquid, wild type, with FuDR, 2.5 × 10^9 bacteria/ml, read-out: relative change of mean lifespan vs control, Trial 2
[16] = on plate, CF512 temperature-sensitive sterile animals, without FuDR, 2.0 × 10^10 bacteria/ml, read-out: relative change of mean lifespan vs control, Trial 3
[17] = Assay 2(z), 1.0 × 10^9 bacteria/ml, wild type + FuDR (2012 July), read-out: Lifespan assay in liquid
[18] = Assay 3(aa), 2.5 × 10^9 bacteria/ml, wild type + FuDR, read-out: Lifespan assay in liquid
[19] = Assay 4(ab), 2.0 × 10^10 bacteria/ml, CF512 worms, no FuDR, read-out: Lifespan assay on plates

T1 sequence (P09874 whole entry): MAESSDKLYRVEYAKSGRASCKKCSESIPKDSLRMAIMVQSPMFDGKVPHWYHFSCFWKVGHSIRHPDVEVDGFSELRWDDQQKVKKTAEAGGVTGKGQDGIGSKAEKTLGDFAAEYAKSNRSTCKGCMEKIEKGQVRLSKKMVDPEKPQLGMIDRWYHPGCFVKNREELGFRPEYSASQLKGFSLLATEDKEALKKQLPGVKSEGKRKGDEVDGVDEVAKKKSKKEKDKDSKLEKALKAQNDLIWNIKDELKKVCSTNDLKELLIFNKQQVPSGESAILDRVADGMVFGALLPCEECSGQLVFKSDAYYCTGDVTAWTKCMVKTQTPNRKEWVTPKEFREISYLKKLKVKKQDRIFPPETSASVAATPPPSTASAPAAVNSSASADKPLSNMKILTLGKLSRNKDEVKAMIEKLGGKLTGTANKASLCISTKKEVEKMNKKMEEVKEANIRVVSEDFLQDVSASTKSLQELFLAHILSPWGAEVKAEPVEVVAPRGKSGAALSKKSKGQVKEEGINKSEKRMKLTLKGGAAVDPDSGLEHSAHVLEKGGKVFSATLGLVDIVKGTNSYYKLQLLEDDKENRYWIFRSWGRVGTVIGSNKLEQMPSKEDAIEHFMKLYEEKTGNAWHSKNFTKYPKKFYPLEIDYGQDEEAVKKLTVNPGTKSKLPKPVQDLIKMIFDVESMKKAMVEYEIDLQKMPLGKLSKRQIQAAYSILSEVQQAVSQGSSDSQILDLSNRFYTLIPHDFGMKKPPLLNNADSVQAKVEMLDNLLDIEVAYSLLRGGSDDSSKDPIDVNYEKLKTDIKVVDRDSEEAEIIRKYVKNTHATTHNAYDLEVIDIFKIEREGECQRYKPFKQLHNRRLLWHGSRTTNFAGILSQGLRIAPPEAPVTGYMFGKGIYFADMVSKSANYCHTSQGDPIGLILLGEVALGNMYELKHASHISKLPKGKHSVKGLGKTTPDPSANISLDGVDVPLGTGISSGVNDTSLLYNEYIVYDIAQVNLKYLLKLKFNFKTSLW

| SMILES | L = PARP inhibition (human PARP1) | fold induction at 10 µM (WI-38 cells [1]; [4]) | fold induction at 10 µM (WI-38 cells [1]; [5]) | Assay 4: H2O2- & Cd-resistant (WI-38 cells [1]) | Assay 2: Cadmium-resistant (WI-38 cells [1]) | A = Cadmium resistant (WI-38 cells [1]; [6]) | A = Cadmium resistant (WI-38 cells [1]; summary score) | C = H2O2- & Cd-resistant (WI-38 cells [1]; summary score) | fold induction at 10 µM (WI-38 cells [2]; [7]) | fold induction at 10 µM (WI-38 cells [2]; [8]) | B = MMS resistant (WI-38 cells [2]; [6]) | B = MMS resistant (WI-38 cells [2]; summary score) | D = Triple resistant (WI-38 cells [2]; summary score) | activity at 10 µM [3, 9] [%] | activity at 10 µM [3, 10] [%] | activity at 10 µM [3, 11] [%] | activity at 10 µM [3, 12] [%] | activity at 10 µM [3, 13] [%] | P = Potential DNA-damaging [3] | R = Potential DNA damaging [3] | further results |
| --- | --- | --- | --- | --- | --- | --- | --- | --- | --- | --- | --- | --- | --- | --- | --- | --- | --- | --- | --- | --- | --- |
| O=C(NCc1cccnc1)/C(=C/c1ccc(-c2ccc(Cl)cc2)o1)S(=O)(=O)c1ccccc1 [Gr-7C] | 0 | 1.31 | 0.97 | YES | YES | 0 | 1 | 1 | 1.14 | 1.39 | 0 | 0 | 0 | 132 | 135 | 82.9 | 196 | 369 | 0 | 0 | ILS at 60 µM (C. elegans; [14]): -29.1%; ILS at 60 µM (C. elegans; [15]): 10.1%; ILS at 60 µM (C. elegans; [16]): -41.6%; ILS at 66 µM (C. elegans; [17]): -29.1%; ILS at 66 µM (C. elegans; [18]): 10.1%; ILS at 66 µM (C. elegans; [19]): -41.6%; O = Life span- extending scores in worms (C. elegans): 0; M = Lifespan-extending scores in worms (C. elegans): 0 |
| O=C(Nc1cc(C(F)(F)F)ccc1Cl)c1ccc([N+](=O)[O-])o1 [Gr-1B] | 0 | 2.01 | 1.72 | YES | YES | 1 | 1 | 1 | 0.7 | 3.03 | 0 | 0 | 0 | 134 | 95.8 | 118 | 211 | 137 | 0 | 0 | CdCl2-resistant (WI-38 cells [1]): YES; H2O2- & CdCl2-resistant (WI-38 cells [1]): YES; CdCl2-resistant (WI-38 cells [1]; WI-38 cells, 10 μM): YES; H2O2- & CdCl2-resistant (WI-38 cells [1]; WI-38 cells, 10 μM, both stressors): YES; Assay 3: MMS-resistant (WI-38 cells [2]; YES/NO, * indicates partial): NO *; Assay 5: Triple resistant (WI-38 cells [2]; YES/NO, H2O2, cadmium and MMS): YES; ILS at 60 µM (C. elegans; [14]): 12.9%; ILS at 60 µM (C. elegans; [15]): 8%; ILS at 60 µM (C. elegans; [16]): 15.1%; ILS at 66 µM (C. elegans; [17]): 12.9%; ILS at 66 µM (C. elegans; [18]): 8%; ILS at 66 µM (C. elegans; [19]): 15.1%; O = Life span- extending scores in worms (C. elegans): 1 (1 for lifespan extension observed in 2 trials); M = Lifespan-extending scores in worms (C. elegans): 1 (1 for lifespan extension observed in 2 trials) |
